Laboratory results as given in ChEMBL document CHEMBL2203044, “Discovery of di-indolinone as a novel scaffold for protein tyrosine phosphatase 1B inhibitors” (Bioorg Med Chem Lett, 2012).

What was measured:
[1] = target: T1, Tyrosine-protein phosphatase non-receptor type 1 (Homo sapiens, UniProt P18031); assay: Inhibition of recombinant PTP1B using para-nitrophenylphosphate as substrate by high throughput screening assay
T1 sequence (P18031 whole entry): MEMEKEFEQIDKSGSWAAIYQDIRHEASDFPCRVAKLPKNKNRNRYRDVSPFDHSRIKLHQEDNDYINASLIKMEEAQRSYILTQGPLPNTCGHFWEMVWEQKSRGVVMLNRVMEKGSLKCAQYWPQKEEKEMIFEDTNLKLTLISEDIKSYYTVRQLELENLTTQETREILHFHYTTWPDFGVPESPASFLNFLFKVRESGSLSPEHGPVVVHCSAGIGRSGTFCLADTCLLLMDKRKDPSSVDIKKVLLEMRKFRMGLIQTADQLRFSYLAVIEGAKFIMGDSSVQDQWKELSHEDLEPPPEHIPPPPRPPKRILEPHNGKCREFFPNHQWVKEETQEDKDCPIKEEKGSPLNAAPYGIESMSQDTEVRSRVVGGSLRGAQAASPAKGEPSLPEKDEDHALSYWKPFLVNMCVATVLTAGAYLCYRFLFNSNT

[2] = target: Tyrosine-protein phosphatase non-receptor type 6 (Homo sapiens, UniProt P29350); assay: Inhibition of SHP-1
Tyrosine-protein phosphatase non-receptor type 6, sequence (P29350 whole entry): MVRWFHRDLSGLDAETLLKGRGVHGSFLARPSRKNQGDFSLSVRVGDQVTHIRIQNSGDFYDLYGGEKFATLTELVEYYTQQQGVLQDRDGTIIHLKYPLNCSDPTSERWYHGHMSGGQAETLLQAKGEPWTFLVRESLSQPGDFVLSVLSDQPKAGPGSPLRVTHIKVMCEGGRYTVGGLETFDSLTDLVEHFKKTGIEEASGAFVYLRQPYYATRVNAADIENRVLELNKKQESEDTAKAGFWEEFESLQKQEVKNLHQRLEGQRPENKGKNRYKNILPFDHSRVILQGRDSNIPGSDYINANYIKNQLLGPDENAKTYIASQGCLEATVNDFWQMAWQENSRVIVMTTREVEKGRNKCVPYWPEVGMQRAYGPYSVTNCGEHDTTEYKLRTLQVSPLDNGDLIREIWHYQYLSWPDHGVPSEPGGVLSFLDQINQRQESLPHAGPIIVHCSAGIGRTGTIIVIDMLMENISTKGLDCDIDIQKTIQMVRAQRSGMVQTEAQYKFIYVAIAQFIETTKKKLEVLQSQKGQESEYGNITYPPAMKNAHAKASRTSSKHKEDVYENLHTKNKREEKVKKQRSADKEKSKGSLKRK

[3] = target: Receptor-type tyrosine-protein phosphatase F (Homo sapiens, UniProt P10586); assay: Inhibition of LAR
Receptor-type tyrosine-protein phosphatase F, sequence (P10586 whole entry): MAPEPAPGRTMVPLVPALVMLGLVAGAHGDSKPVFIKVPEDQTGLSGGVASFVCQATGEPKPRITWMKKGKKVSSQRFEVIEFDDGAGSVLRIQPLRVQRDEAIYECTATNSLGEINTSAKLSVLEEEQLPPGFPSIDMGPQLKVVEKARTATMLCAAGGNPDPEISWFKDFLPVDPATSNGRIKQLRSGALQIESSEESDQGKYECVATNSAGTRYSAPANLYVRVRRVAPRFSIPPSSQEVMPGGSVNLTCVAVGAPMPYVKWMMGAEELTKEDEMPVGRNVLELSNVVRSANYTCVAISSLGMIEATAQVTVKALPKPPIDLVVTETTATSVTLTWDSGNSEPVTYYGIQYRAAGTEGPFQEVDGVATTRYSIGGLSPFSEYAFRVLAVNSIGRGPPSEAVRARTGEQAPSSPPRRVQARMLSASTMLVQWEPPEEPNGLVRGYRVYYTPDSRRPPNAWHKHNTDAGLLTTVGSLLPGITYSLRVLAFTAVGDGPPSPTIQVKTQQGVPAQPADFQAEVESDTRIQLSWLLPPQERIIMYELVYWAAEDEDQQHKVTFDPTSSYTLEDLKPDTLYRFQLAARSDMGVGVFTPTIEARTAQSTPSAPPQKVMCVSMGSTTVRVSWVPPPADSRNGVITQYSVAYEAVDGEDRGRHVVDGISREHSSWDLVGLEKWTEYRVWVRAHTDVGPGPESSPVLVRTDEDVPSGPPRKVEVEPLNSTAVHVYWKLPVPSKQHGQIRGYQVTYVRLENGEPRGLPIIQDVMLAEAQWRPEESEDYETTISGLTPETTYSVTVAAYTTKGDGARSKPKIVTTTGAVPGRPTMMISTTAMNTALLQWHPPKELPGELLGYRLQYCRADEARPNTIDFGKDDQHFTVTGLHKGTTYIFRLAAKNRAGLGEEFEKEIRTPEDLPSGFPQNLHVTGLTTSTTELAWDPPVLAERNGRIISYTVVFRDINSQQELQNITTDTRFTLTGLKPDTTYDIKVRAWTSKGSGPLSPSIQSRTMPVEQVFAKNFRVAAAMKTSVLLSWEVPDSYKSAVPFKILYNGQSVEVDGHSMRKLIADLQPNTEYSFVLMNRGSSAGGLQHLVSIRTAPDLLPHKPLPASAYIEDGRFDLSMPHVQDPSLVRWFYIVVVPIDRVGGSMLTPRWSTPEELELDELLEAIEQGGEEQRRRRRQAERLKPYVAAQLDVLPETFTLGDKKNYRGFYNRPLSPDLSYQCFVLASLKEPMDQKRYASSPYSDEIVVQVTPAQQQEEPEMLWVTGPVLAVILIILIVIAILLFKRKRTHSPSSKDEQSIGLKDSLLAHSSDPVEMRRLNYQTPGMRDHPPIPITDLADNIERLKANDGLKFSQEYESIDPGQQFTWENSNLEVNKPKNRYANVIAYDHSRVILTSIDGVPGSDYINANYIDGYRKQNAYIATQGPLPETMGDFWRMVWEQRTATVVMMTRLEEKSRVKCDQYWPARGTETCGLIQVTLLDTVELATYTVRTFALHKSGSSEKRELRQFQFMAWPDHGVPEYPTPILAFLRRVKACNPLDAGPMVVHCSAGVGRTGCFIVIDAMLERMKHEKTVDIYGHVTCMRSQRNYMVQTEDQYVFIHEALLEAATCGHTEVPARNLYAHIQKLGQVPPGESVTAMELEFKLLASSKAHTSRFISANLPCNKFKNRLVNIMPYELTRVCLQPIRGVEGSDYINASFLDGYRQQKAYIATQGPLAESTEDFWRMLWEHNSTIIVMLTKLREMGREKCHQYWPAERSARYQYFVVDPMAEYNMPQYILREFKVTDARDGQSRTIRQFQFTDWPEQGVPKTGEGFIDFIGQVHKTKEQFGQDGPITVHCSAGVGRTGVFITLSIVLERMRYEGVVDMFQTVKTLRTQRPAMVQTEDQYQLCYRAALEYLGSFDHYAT

[4] = target: T2, Tyrosine-protein phosphatase non-receptor type 2 (Homo sapiens, UniProt P17706); assay: Inhibition of TCPTP
T2 sequence (P17706 whole entry): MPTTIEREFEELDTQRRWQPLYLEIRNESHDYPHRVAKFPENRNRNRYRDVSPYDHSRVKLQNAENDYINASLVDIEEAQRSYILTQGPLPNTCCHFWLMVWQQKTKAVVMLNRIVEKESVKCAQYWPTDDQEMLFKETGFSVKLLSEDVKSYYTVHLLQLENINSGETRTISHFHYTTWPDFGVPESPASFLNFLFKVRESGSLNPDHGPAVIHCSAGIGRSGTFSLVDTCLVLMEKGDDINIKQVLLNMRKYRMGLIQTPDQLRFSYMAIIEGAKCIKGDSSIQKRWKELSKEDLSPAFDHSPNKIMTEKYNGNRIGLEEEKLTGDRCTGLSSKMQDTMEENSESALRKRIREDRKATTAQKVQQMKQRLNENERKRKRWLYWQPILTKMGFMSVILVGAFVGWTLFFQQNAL

[5] = target: T3, Tyrosine-protein phosphatase non-receptor type 1 (Homo sapiens) (UniProt P18031); assay: Inhibition of recombinant PTP1B using para-nitrophenylphosphate as substrate at 20 ug/mL by high throughput screening assay
T3 sequence (whole entry): T1 sequence (P18031 whole entry)

Row | IC50 [1] [µM] | SMILES | further results
1 | 4.59 | O=C1Nc2ccccc2/C1=C\c1ccc(CN2C(=O)C(=O)c3cc(Cl)ccc32)o1 | 
2 | 2.8 | O=C1Nc2ccc(Br)cc2/C1=C\c1ccc(CN2C(=O)C(=O)c3ccccc32)o1 | IC50 [2]: > 100 µM; IC50 [3]: > 100 µM; IC50 [4]: 11.5 µM
3 | 3.46 | Cc1ccc2c(c1)C(=O)C(=O)N2Cc1ccc(/C=C2/C(=O)Nc3ccc(Cl)cc32)o1 | 
4 |  | COC(=O)[C@@H]1CCCCN1Cc1ccc(/C=C2/C(=O)N(Cc3ccc(/C=C4/C(=O)Nc5ccccc54)o3)c3ccc(F)cc32)o1 | inhibition [5]: 75%
5 | 5.7 | Cc1ccc2c(c1)C(=O)C(=O)N2Cc1ccc(/C=C2/C(=O)Nc3ccc(C)cc32)o1 | 
6 | 6.71 | Cc1ccc2c(c1)C(=O)C(=O)N2Cc1ccc(/C=C2/C(=O)Nc3ccccc32)o1 | 
7 |  | COC(=O)[C@@H]1CCCCN1Cc1ccc(/C=C2/C(=O)Nc3ccc(F)cc32)o1 | inhibition [5]: 14%
8 | 9.82 | Cc1ccc2c(c1)/C(=C\c1ccc(CN3C(=O)C(=O)c4ccccc43)o1)C(=O)N2 | 
9 | > 60 | Cc1ccc2c(c1)C(=O)C(=O)N2Cc1ccc(C=O)o1 | 
10 | > 60 | O=Cc1ccc(CN2C(=O)C(=O)c3cc(Cl)ccc32)o1 | 
11 | 2.3 | O=C1Nc2ccc(Cl)cc2/C1=C\c1ccc(CN2C(=O)C(=O)c3cc(Cl)ccc32)o1 | IC50 [2]: > 100 µM; IC50 [3]: > 100 µM; IC50 [4]: 18.8 µM
12 | 5.23 | Cc1ccc2c(c1)C(=O)C(=O)N2Cc1ccc(/C=C2/C(=O)Nc3ccc(Br)cc32)o1 | 
13 | 4.41 | O=C1Nc2ccc(Cl)cc2/C1=C\c1ccc(CN2C(=O)C(=O)c3ccccc32)o1 | 
14 | 5.35 | O=C1Nc2ccc([N+](=O)[O-])cc2/C1=C\c1ccc(CN2C(=O)C(=O)c3ccccc32)o1 | 
15 |  | COC(=O)[C@@H]1CCCCN1Cc1ccc(/C=C2/C(=O)N(Cc3ccc(C=O)o3)c3ccc(F)cc32)o1 | inhibition [5]: 55%
16 | > 60 | O=Cc1ccc(CN2C(=O)C(=O)c3ccccc32)o1 | 
17 | 7.63 | O=C1Nc2ccccc2/C1=C\c1ccc(CN2C(=O)C(=O)c3ccccc32)o1 | 
18 | 3.37 | Cc1ccc2c(c1)/C(=C\c1ccc(CN3C(=O)C(=O)c4cc(Cl)ccc43)o1)C(=O)N2 | 
